Laboratory results from US20230219957A1, “SMALL MOLECULE CB002-ANALOGES RESTORE THE P53 PATHWAY AND TARGET S-PHASE CHECKPOINT” (Brown University, priority 2020, published 2023).

What was measured:
Format in all cases: cell-based, human
HCT116 p53 R273H = assay: CellTiter-Glo (Cell-Titer glow) cytotoxicity assay; conditions: forty-eight hours
Protocol: (§1) CellTiter-Glo® luminescent cell viability assay. Cells were seeded in 96-well plates at a density of 5×10^3 cells per well. 20 μL of CellTiter-Glo® Reagent was added directly to the wells, following the manufacturers protocol. The bioluminescence signal was determined using an IVIS imaging system, optionally at a period of 48-72 hours after treatment.
(§2) CB002-analog #4 is a potent anti-tumor agent in vitro and in vivo. The inventors focused on lead CB002-analog #4 and investigated its therapeutic index in vitro and in vivo. The inventors treated an isogenic HCT116 cell line panel with 100 μM CB002 or 25 μM CB002-analog #4 and established IC50 values by the Cell-Titer glow cytotoxicity assay. Across this panel, CB002-analog #4 has a 20-fold to 30-fold range in IC50 values, independently of the HCT116 p53-status.

HCT116 p53+/+ = assay: CellTiter-Glo (Cell-Titer glow) cytotoxicity assay; conditions: forty-eight hours
Protocol: as §1, §2

HCT116 p53−/− = assay: CellTiter-Glo (Cell-Titer glow) cytotoxicity assay; conditions: forty-eight hours
Protocol: as §1, §2

Noxa = Noxa protein expression by immunoblotting; conditions: for Noxa protein induction upon knockdown of ATF3/4: SW480 cells, 100 μM CB002 or 25 μM CB002-analog #4
Protocol: Immunoblotting. After treatment, cells were harvested by trypsinization, washed with phosphate-buffered saline, and lysed with RIPA buffer (Sigma-Aldrich) for thirty minutes to one hour at 4° C. Protein lysates were spun down. The supernatant was collected. Protein quantification was performed using a Pierce™ BCA Protein Assay Kit (Thermo Fisher Scientific, Waltham, Mass., USA). 1× NuPAGE® LDS sample buffer (Thermo Fisher Scientific, Waltham, Mass., USA) and 2-Mercaptoethanol as the reducing agent (Sigma-Aldrich) were added to protein lysates followed by boiling for fifteen minutes at 95° C. Equal total protein amounts samples were loaded into NuPAGE™ Novex™ 4-12% Bis-Tris Protein Gels (1.5 mm, Thermo Fisher Scientific, Waltham, Mass., USA). Gel electrophoresis was performed with NuPAGE™ MES SDS Running Buffer. Proteins were transferred onto an Immobilon-P membrane (PVDF, EMD Millipore, Taunton, Mass., USA) using a Bio-Rad system with a 10% Tris-Glycine and 10% methanol transfer buffer diluted in distilled and deionized water. After transfer, membranes were blocked with 10% milk in Tris-buffered saline with Tween 20 (TBST) solution. The membranes were then incubated overnight with the primary antibody, washed with TBST, and incubated with secondary antibody for one hour. Incubations were performed in 5% milk in TBST solution. Signal was detected by using a chemiluminescent detection kit, followed by autoradiography. The following antibodies were used: p53 (DO-1, 1:1000, Santa Cruz, Calif., USA), p73 (1:1000, Bethyl Laboratories), p21, and NOXA (1:250, EMD Millipore, Taunton, Mass., USA), DR5, FADD, cleaved caspase 3, cleaved caspase 8, cleaved PARP, and LC3B (1:1000, Cell Signaling Technology, Inc., Danvers, Mass. USA), and β-actin (1:10000, Sigma-Aldrich, St. Louis, Mo., USA).
Immunoblotting (additional method). […] Total protein per sample was determined using a Pierce™ BCA Protein Assay Kit (Thermo Fisher Scientific, Waltham, Mass., USA). […] Signal was detected using a chemiluminescent detection kit, followed by autoradiography. […]

SW480 colon cancer cells = assay: Immunoblot of cell cycle markers; conditions: for M-phase marker pH3(Ser10) / pcdc2(Tyr15) and pcdc25c(Ser16) expression: combination with etoposide; for S-phase marker p-RPA-RPA2(S8) expression: synchronized SW480, time-course after release
Protocol: Immunoblotting (additional method). After treatment, floating cells were collected, and adherent cells were trypsinized, washed with phosphate-buffered saline, and lysed with RIPA buffer (Sigma-Aldrich, St. Louis, Mo., USA) for thirty minutes to one hour at 4° C. Protein lysates were pelleted. The supernatant was collected. Total protein per sample was determined using a Pierce™ BCA Protein Assay Kit (Thermo Fisher Scientific, Waltham, Mass., USA). Proteins were denatured using 1× NuPAGE® LDS sample buffer (Thermo Fisher Scientific, Waltham, Mass., USA) and reduced with 2-mercaptoethanol (Sigma-Aldrich, St. Louis, Mo., USA). Protein lysates were boiled for fifteen min at 95° C. After protein normalization, samples were loaded into NuPAGE™ Novex™ 4-12% Bis-Tris Protein Gels (Thermo Fisher Scientific, Waltham, Mass., USA). Gel electrophoresis was performed with NuPAGE™ MES SDS Running Buffer. Proteins were transferred onto an Immobilon-P membrane (PVDF, EMD Millipore, Taunton, Mass., USA) using a Bio-Rad system with a 10% Tris-Glycine and 10% methanol transfer buffer diluted in distilled and deionized water. Membranes were blocked with 10% milk in Tris-buffered saline with Tween 20 (TBST) solution. The membranes were incubated overnight with the primary antibody, washed with TBST, and incubated with secondary antibody for one hour. Primary antibody incubations were performed in 5% milk or 5% bovine serum albumin in TBST solution as per manufacturer instructions. Signal was detected using a chemiluminescent detection kit, followed by autoradiography. The following antibodies were used: p53 (1:1000, #sc-126, Santa Cruz Biotechnology, Santa Cruz, Calif., USA), p73 (1:1000, #A300-126A, Bethyl Laboratories), Noxa (1:250, #OP180, EMD Millipore, Taunton, Mass., USA), DR5 (#3696), cleaved PARP (#9546), phospho-RPA32/RPA2 (#54762), p-cdc2 (#9111), p-cdc25c, pH3 (#3377) (1:1,000; Cell Signaling Technology, Inc., Danvers, Mass. USA) and β-actin (1:10000, A5441, Sigma).
Cell synchronization. Synchronized cells were synchronized by double thymidine block. Cells were treated with […] thymidine for sixteen hours. The drug was removed and replaced by complete growth media for eight hours. Cells were treated for the second time with […] thymidine for sixteen hours. At this point, cells were treated and harvested.

SMILES	IC50 (HCT116 p53 R273H) [µM]	IC50 (HCT116 p53+/+) [µM]	IC50 (HCT116 p53−/−) [µM]	Noxa protein induction upon knockdown of ATF3/4 (Noxa)	M-phase marker pH3(Ser10) (SW480 colon cancer cells; synchronized SW480)	pcdc2(Tyr15) and pcdc25c(Ser16) expression (SW480 colon cancer cells; synchronized SW480)	pcdc2(Tyr15) and pcdc25c(Ser16) protein expression (SW480 colon cancer cells; single agent, synchronized SW480)	S-phase marker p-RPA-RPA2(S8) expression (SW480 colon cancer cells)	p21 (SW480 colon cancer cells; time-course after synchronization release)	Cyclin A expression (SW480 colon cancer cells; time-course, compared to DMSO and etoposide)	IC50 (HCT116 p53 R273H; Homo sapiens, HCT-116) [µM]	IC50 (HCT116 p53+/+; Homo sapiens, HCT-116) [µM]	IC50 (HCT116 p53−/−; Homo sapiens, HCT-116) [µM]	Noxa expression (Noxa; 24 hours, DLD-1 and SW480 cells)
Cn1c(=O)c2[nH]c(Nc3cccc(C(F)(F)F)c3)nc2n(C)c1=O [CB002-analog #4]	8.09	8.69	8.83	abrogated Noxa protein induction	does not increase	decrease in expression	decreased	increased compared to DMSO	increase	did not decrease over time				
Cn1c(=O)c2[nH]c(Nc3ccccc3)nc2n(C)c1=O [CB002]				abrogated Noxa protein induction	does not increase	decrease in expression		increase			140	242	161	induce Noxa expression
